US5145781A (priority 1989, dated 1992)

Key:
[1] = Water-solubility, light-resistance and stability (general statements); format: physicochemical
[2] = cited from earlier work
7 week-old dd mice = test: Acute toxicity test, oral administration to mice; format: in vivo; conditions: orally administered
alpha-glucosidase = test: Hydrolysis by alpha-glucosidase from pig liver; format: biochemical; conditions: alpha-glucosidase extracted from pig liver, partially purified

Structure (SMILES) | stability in an alkaline solution [1] | solubility in water ([2]; ambient temperature) | solubility in water, in words [2] | acute toxicity, in words (7 week-old dd mice) | mortality (7 week-old dd mice; up to 5g, higher dose was difficult) | hydrolysis by alpha-glucosidase (alpha-glucosidase)
C[C@@H]1O[C@@H](OC[C@H]2O[C@@H](Oc3c(-c4ccc(O)c(O)c4)oc4cc(O)cc(O)c4c3=O)[C@H](O)[C@@H](O)[C@@H]2O)[C@H](O)[C@H](O)[C@H]1O [rutin] | tends to readily decompose | about 0.01 w/v % | hardly soluble in water | – | – | –
C[C@@H]1O[C@@H](OC[C@H]2O[C@@H](Oc3c(-c4ccc(O)c(O)c4)oc4cc(O)cc(O)c4c3=O)[C@H](O)[C@@H](O)[C@@H]2O[C@H]2O[C@H](CO)[C@@H](O)[C@H](O)[C@H]2O)[C@H](O)[C@H](O)[C@H]1O [Example A-2, alpha-glucosyl rutin] | – | – | – | extremely low | the same result | hydrolyzed the alphaglucosyl rutin into rutin and D-glucose
